# What was measured:
# SaBphP2 PCM [1] = molecular target: T1, SaBphP2 PCM (Allostigmatella aurantiaca, UniProt Q09E27, H275T); assay: X-ray crystal structure ([…] Å, […] K); type: binding; conditions: covalent (thioether to Cys13); Pr state, dark; chromophore
# T1 construct: gene STIAU_8420; photosensory core module PAS-GAF-PHY, residues 1-497, histidine kinase domain removed; homodimer; BV on Cys13
# SaBphP2 PCM [2] = molecular target: T2, SaBphP2 PCM (Allostigmatella aurantiaca, UniProt Q09E27); assay: X-ray crystal structure ([…] Å, […] K; SFX […] Å, […] K); type: binding; conditions: covalent (thioether to Cys13); Pr state, dark; chromophore
# T2 construct: gene STIAU_8420; photosensory core module PAS-GAF-PHY, residues 1-497, histidine kinase domain removed; homodimer; BV on Cys13
# T2 sequence (Q09E27 entry or part of it): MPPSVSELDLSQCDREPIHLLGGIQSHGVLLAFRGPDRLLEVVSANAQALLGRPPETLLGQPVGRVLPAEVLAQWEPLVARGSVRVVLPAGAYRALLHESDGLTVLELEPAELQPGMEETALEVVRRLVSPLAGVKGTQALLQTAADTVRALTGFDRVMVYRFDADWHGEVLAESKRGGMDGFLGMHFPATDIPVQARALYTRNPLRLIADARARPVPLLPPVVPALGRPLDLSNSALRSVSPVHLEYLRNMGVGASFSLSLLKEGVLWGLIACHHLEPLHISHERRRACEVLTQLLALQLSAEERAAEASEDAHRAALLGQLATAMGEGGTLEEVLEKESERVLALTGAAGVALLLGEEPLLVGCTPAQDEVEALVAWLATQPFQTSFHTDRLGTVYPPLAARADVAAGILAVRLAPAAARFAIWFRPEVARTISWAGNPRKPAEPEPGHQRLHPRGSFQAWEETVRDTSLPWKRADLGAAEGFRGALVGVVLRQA
# T1 sequence (Q09E27 entry or part of it H275T): as the sequence (Q09E27 entry or part of it) above, with H275T counted along it
smiles,measurement,setting,value
C=CC1=C(C)C(=Cc2[nH]c(C=C3N=C(C=C4NC(=O)C(C)=C4C=C)C(C)=C3CCC(=O)O)c(CCC(=O)O)c2C)NC1=O [biliverdin],"X-ray crystal structure (2.2 Å, 100 K)",SaBphP2 PCM [1],The cryostructure of the His275Thr mutant is essentially identical to that of the wild-type
same,"X-ray crystal structure (1.65 Å, 100 K; SFX 2.1 Å, 293 K)",SaBphP2 PCM [2],The BV chromophore is bound to Cys13 close to the N-terminus

# Reference: publication PMC6748860, “High-resolution crystal structures of a myxobacterial phytochrome at cryo and room temperatures” (Structural Dynamics, 2019)
